Measurements reported in patent publication US9475817B2 (BRISTOL-MYERS SQUIBB COMPANY, priority 2012, dated 2016).

Key:
CK1δ = CK1δ (Homo sapiens (Human), UniProt P48730); test: CK1δ kinase assay (Caliper LabChip, fluoresceinated peptide substrate); type: biochemical; details: 200 pM CK1δ, 50 μM ATP, 1.5 μM peptide substrate, 22 hours room temperature
Protocol: (§1) CK1ε and CK1δ Kinase Assays
(§2) The kinase assay was performed in V-bottom 384-well plates. […] The reaction was incubated at room temperature for 22 hours and terminated by adding 45 μl of 35 mM EDTA to each sample. […] Compounds were dissolved at 10 mM in dimethylsulfoxide (DMSO) and evaluated at eleven concentrations. IC50 values were derived by non-linear regression analysis.

CK1ε = CK1ε (Homo sapiens (Human), UniProt P49674); test: CK1ε kinase assay (Caliper LabChip, fluoresceinated peptide substrate); type: biochemical; details: 200 pM CK1ε, 50 μM ATP, 1.5 μM peptide substrate, 22 hours room temperature
Chain of CK1ε (P49674 whole entry): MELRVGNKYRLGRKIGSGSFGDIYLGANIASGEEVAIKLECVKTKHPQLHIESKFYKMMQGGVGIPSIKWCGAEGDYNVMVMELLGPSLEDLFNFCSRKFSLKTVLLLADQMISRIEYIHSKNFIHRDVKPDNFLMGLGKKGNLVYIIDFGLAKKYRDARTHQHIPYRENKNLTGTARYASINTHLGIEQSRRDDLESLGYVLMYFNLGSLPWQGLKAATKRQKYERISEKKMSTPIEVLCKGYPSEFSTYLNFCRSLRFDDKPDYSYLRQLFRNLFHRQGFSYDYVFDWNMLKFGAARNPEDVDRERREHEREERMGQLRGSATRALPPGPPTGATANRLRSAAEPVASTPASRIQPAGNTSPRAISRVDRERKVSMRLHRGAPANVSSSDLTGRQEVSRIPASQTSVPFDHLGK
Protocol: as §1, §2

Chain of CK1δ (P48730 whole entry): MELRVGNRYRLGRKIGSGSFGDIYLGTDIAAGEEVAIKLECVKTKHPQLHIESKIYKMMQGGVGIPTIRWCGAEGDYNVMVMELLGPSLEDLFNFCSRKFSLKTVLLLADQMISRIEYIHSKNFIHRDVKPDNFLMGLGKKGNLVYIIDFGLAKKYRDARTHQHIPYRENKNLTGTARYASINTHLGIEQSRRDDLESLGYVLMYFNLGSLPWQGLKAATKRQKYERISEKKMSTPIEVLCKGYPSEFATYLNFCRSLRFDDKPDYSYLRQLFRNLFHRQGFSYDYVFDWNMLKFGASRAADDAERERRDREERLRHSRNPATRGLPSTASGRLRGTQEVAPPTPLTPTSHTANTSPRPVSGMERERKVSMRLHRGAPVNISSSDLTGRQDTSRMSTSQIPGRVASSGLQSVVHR

Structure (SMILES)	IC50 (CK1δ)	IC50 (CK1ε)
COc1cccc(C(=O)Nc2cn3nc(-c4cn(C)nc4-c4ccc(F)cc4)ccc3n2)c1F [Compound 59, 2-fluoro-N-(6-(3-(4-fluorophenyl)-1-methyl-1H-pyrazol-4-yl)imidazo[1,2-b]pyridazin-2-yl)-3-methoxybenzamide]	7.8 nM	22.1 nM
COc1c(F)cc(C(=O)Nc2cn3nc(-c4cn(C)nc4-c4ccc(F)cc4)ccc3n2)cc1F [Compound 61, 3,5-difluoro-N-(6-(3-(4-fluorophenyl)-1-methyl-1H-pyrazol-4-yl)imidazo[1,2-b]pyridazin-2-yl)-4-methoxybenzamide]	5.7 nM	18.7 nM
Cn1cc(-c2ccc3nc(NC(=O)c4ccc(F)cc4)cn3n2)c(-c2ccc(F)cc2)n1 [Compound 62, 4-fluoro-N-(6-(3-(4-fluorophenyl)-1-methyl-1H-pyrazol-4-yl)imidazo[1,2-b]pyridazin-2-yl)benzamide]	7.2 nM	28.1 nM
Cn1cc(-c2ccc3nc(NC(=O)c4cnccc4C(F)(F)F)cn3n2)c(-c2ccc(F)cc2)n1 [Compound 63, N-(6-(3-(4-fluorophenyl)-1-methyl-1H-pyrazol-4-yl)imidazo[1,2-b]pyridazin-2-yl)-4-(trifluoromethyl) nicotinamide]	8 nM	34.8 nM
COc1ccncc1C(=O)Nc1cn2nc(-c3cn(C)nc3-c3ccc(F)cc3)ccc2n1 [Compound 64, N-(6-(3-(4-fluorophenyl)-1-methyl-1H-pyrazol-4-yl)imidazo[1,2-b]pyridazin-2-yl)-4-methoxynicotinamide]	7.1 nM	38.5 nM
Cn1cc(-c2ccc3nc(NC(=O)c4cccc(C(F)(F)F)n4)cn3n2)c(-c2ccc(F)cc2)n1 [Compound 65, N-(6-(3-(4-fluorophenyl)-1-methyl-1H-pyrazol-4-yl)imidazo[1,2-b]pyridazin-2-yl)-6-(trifluoromethyl) picolinamide]	24.7 nM	158 nM
COc1cccc(C(=O)Nc2cn3nc(-c4cn(C)nc4-c4ccc(F)cc4)ccc3n2)n1 [Compound 67, N-(6-(3-(4-fluorophenyl)-1-methyl-1H-pyrazol-4-yl)imidazo[1,2-b]pyridazin-2-yl)-6-methoxypicolinamide]	14.2 nM	13.3 nM
Cn1cc(-c2ccc3nc(NC(=O)c4ccc(CCN5CCCC5)nc4)cn3n2)c(-c2ccc(F)cc2)n1 [Compound 72, N-(6-(3-(4-fluorophenyl)-1-methyl-1H-pyrazol-4-yl)imidazo[1,2-b]pyridazin-2-yl)-6-(2-(pyrrolidin-1-yl)ethyl)nicotinamide]	10 nM	27.8 nM
Cn1cc(-c2ccc3nc(NC(=O)c4ccc(C(F)(F)F)cn4)cn3n2)c(-c2ccc(F)cc2)n1 [Compound 74, N-(6-(3-(4-fluorophenyl)-1-methyl-1H-pyrazol-4-yl)imidazo[1,2-b]pyridazin-2-yl)-5-(trifluoromethyl) picolinamide]	34.6 nM	232 nM
COc1ccc(C(=O)Nc2cn3nc(-c4cn(C)nc4-c4ccc(F)cc4)ccc3n2)c(OC)n1 [Compound 75, N-(6-(3-(4-fluorophenyl)-1-methyl-1H-pyrazol-4-yl)imidazo[1,2-b]pyridazin-2-yl)-2,6-dimethoxynicotinamide]	41 nM	363 nM
CCc1ccc(C(=O)Nc2cn3nc(-c4cn(C)nc4-c4ccc(F)cc4)ccc3n2)nc1 [Compound 76, 5-ethyl-N-(6-(3-(4-fluorrophenyl)-1-methyl-1H-pyrazol-4-yl)imidazo[1,2-b]pyridazin-2-yl)picolinamide]	11.9 nM	64 nM
COc1ncc(C(=O)Nc2cn3nc(-c4cn(C)nc4-c4ccc(F)cc4)ccc3n2)cn1 [Compound 84, N-(6-(3-(4-fluorophenyl)-1-methyl-1H-pyrazol-4-yl)imidazo[1,2-b]pyridazin-2-yl)-2-methoxypyrimidine-5-carboxamide]	435 nM	1020 nM
Cn1cc(-c2ccc3nc(NC(=O)C4CC4)cn3n2)c(-c2ccc(F)cc2)n1 [Compound 85, N-(6-(3-(4-fluorophenyl)-1-methyl-1H-pyrazol-4-yl)imidazo[1,2-b]pyridazin-2-yl)cyclopropanecarboxamide]	7 nM	50.1 nM
Cn1cc(-c2ccc3nc(NC(=O)C4CCC4)cn3n2)c(-c2ccc(F)cc2)n1 [Compound 89, N-(6-(3-(4-fluorophenyl)-1-methyl-1H-pyrazol-4-yl)imidazo[1,2-b]pyridazin-2-yl)cyclobutanecarboxamide]	7.1 nM	25.8 nM
Cn1cc(-c2ccc3nc(NC(=O)C45CC6CC(C)(CC(C)(C6)C4)C5)cn3n2)c(-c2ccc(F)cc2)n1 [Compound 94, (1,3,5S7)-N-(6-(3-(4-fluorophenyl)-1-methyl-1H-pyrazol-4-yl)imidazo[1,2-b]pyridazin-2-yl)-3,5-dimethyladamantane-1-carboxamide]	8.3 nM	34.4 nM
Cc1nc(C(F)(F)F)ccc1C(=O)Nc1cn2nc(-c3cn(C)nc3-c3ccc(F)cc3)ccc2n1 [Compound 95, N-(6-(3-(4-fluorophenyl)-1-methyl-1H-pyrazol-4-yl)imidazo[1,2-b]pyridazin-2-yl)-2-methyl-6-(trifluoromethyl)nicotinamide]	6.5 nM	17.2 nM

Other lines, results leading:

IC50 (CK1δ)	IC50 (CK1ε)	Structure (SMILES)
5.5 nM	13.1 nM	Cn1cc(-c2ccc3nc(NC(=O)c4cnn(C)c4Cl)cn3n2)c(-c2ccc(F)cc2)n1 [Compound 60, 5-chloro-N-(6-(3-(4-fluorophenyl)-1-methyl-1H-pyrazol-4-yl)imidazo[1,2-b]pyridazin-2-yl)-1-methyl-1H-pyrazole-4-carboxamide]
2.8 nM	6.6 nM	CN(C)c1ccc(C(=O)Nc2cn3nc(-c4cn(C)nc4-c4ccc(F)cc4)ccc3n2)cn1 [Compound 66, 6-(dimethylamino)-N-(6-(3-(4-fluorophenyl)-1-methyl-1H-pyrazol-4-yl)imidazo[1,2-b]pyridazin-2-yl)nicotinamide]
4.4 nM	28.1 nM	Cn1cc(-c2ccc3nc(NC(=O)c4ccc(OCC(F)(F)F)nc4)cn3n2)c(-c2ccc(F)cc2)n1 [Compound 68, N-(6-(3-(4-fluorrophenyl)-1-methyl-1H-pyrazol-4-yl)imidazo[1,2-b]pyridazin-2-yl)-6-(2,2,2-trifluoroethoxy)nicotinamide]
2.3 nM	4.8 nM	Cn1cc(-c2ccc3nc(NC(=O)c4ccnc(N5CCOCC5)c4)cn3n2)c(-c2ccc(F)cc2)n1 [Compound 69, N-(6-(3-(4-fluorophenyl)-1-methyl-1H-pyrazol-4-yl)imidazo[1,2-b]pyridazin-2-yl)-2-morpholinoisonicotinamide]
2 nM	4.7 nM	Cn1cc(-c2ccc3nc(NC(=O)c4cncc(O)c4)cn3n2)c(-c2ccc(F)cc2)n1 [Compound 70, N-(6-(3-(4-fluorophenyl)-1-methyl-1H-pyrazol-4-yl)imidazo[1,2-b]pyridazin-2-yl)-5-hydroxynicotinamide]
3.8 nM	17.3 nM	Cn1cc(-c2ccc3nc(NC(=O)c4ccc(-n5cccn5)nc4)cn3n2)c(-c2ccc(F)cc2)n1 [Compound 71, N-(6-(3-(4-fluorophenyl)-1-methyl-1H-pyrazol-4-yl)imidazo[1,2-b]pyridazin-2-yl)-6-(1H-pyrazol-1-yl)nicotinamide]
2.6 nM	6.4 nM	Cc1ccncc1C(=O)Nc1cn2nc(-c3cn(C)nc3-c3ccc(F)cc3)ccc2n1 [Compound 73, N-(6-(3-(4-fluorophenyl)-1-methyl-1H-pyrazol-4-yl)imidazo[1,2-b]pyridazin-2-yl)-4-methylnicotinamide]
3.3 nM	11 nM	Cc1ncccc1C(=O)Nc1cn2nc(-c3cn(C)nc3-c3ccc(F)cc3)ccc2n1 [Compound 78, N-(6-(3-(4-fluorophenyl)-1-methyl-1H-pyrazol-4-yl)imidazo[1,2-b]pyridazin-2-yl)-2-methylnicotinamide]
5.4 nM	5.6 nM	Cn1cc(-c2ccc3nc(NC(=O)c4ccccc4)cn3n2)c(-c2ccc(F)cc2)n1 [Compound 81, N-(6-(3-(4-fluorophenyl)-1-methyl-1H-pyrazol-4-yl)imidazo[1,2-b]pyridazin-2-yl)benzamide]
3.3 nM	71.5 nM	Cn1cc(-c2ccc3nc(NC(=O)c4ncc(-c5ccccn5)s4)cn3n2)c(-c2ccc(F)cc2)n1 [Compound 82, N-(6-(3-(4-fluorophenyl)-1-methyl-1H-pyrazol-4-yl)imidazo[1,2-b]pyridazin-2-yl)-5-(pyridin-2-yl)thiazole-2-carboxamide]
5.6 nM	15.7 nM	Cn1cc(-c2ccc3nc(NC(=O)C4CCCC4)cn3n2)c(-c2ccc(F)cc2)n1 [Compound 86, N-(6-(3-(4-fluorophenyl)-1-methyl-1H-pyrazol-4-yl)imidazo[1,2-b]pyridazin-2-yl)cyclopentanecarboxamide]
4.2 nM	10.5 nM	Cn1cc(-c2ccc3nc(NC(=O)C4CCCCCC4)cn3n2)c(-c2ccc(F)cc2)n1 [Compound 88]
5.5 nM	10.5 nM	Cn1cc(-c2ccc3nc(NC(=O)C45CCCC(CCC4)C5)cn3n2)c(-c2ccc(F)cc2)n1 [Compound 92, N-(6-(3-(4-fluorophenyl)-1-methyl-1H-pyrazol-4-yl)imidazo[1,2-b]pyridazin-2-yl)bicyclo[3.3.1]nonane-1-carboxamide]
4.1 nM	6 nM	Cn1cc(-c2ccc3nc(NC(=O)C45CC6CC(CC(C6)C4)C5)cn3n2)c(-c2ccc(F)cc2)n1 [Compound 93, (3,5,7)-N-(6-(3-(4-fluorophenyl)-1-methyl-1H-pyrazol-4-yl)imidazo[1,2-b]pyridazin-2-yl)adamantane-1-carboxamide]
